From patent US4156724A, “N-acylamino-alpha-arylacetamido cephalosporins and antibacterial compositions and methods containing them” (Sumitomo Chemical Company, Limited, priority 1974, dated 1979) come the findings set out here.

In brackets after ≈: the same amount, converted by molar mass. Where two headings read alike, the source gives them in different places.

Common to all, as to assay type: cell-based
Assay [1] deals with Staphylococcus aureus 209 P. The experiment in a line: Minimum Inhibitory Concentration, Staphylococcus aureus 209 P. The note with it: Staphylococcus aureus 209 P; for MIC: read-out: Minimum Inhibitory Concentration. As for the experimental part: (§1) anti-microbial activity tests were carried out on the compounds obtained in the Examples.
Assay [2] concerns Staphylococcus aureus FS 289. In words: Minimum Inhibitory Concentration, Staphylococcus aureus FS 289. As for the experimental part:
as §1
*Staphylococcus aureus FS 289: strain resistant to penicillin

The test system of another assay is Escherichia coli NIHJ. In words: Minimum Inhibitory Concentration, Escherichia coli NIHJ. The note with it: Escherichia coli NIHJ; for MIC: read-out: Minimum Inhibitory Concentration. As for the experimental part:
as §1

For assay [3], the system named is Klebsiella pneumoniae 602. In words: Minimum Inhibitory Concentration, Klebsiella pneumoniae 602. The note with it: for MIC: Klebsiella pneumoniae, 602, Klebsiella pneumoniae 602, read-out: Minimum Inhibitory Concentration. As for the experimental part: as §1
For another assay, the system named is Proteus vulgaris HX 19. In words: Minimum Inhibitory Concentration, Proteus vulgaris HX 19. To be noted: Proteus vulgaris HX 19; for MIC: HX19, read-out: Minimum Inhibitory Concentration. As for the experimental part: as §1
The subject of assay [4] is Pseudomonas aeruginosa 104. The experiment in a line: Minimum Inhibitory Concentration, Pseudomonas aeruginosa 104. To be noted: Pseudomonas aeruginosa 104; for MIC: read-out: Minimum Inhibitory Concentration. As for the experimental part: as §1
The test system of a further assay is Serratia No. 72. The experiment in a line: Minimum Inhibitory Concentration, Serratia No. 72. As for the experimental part: as §1
Assay [5] has as its system Enterobacter aerogeneus No. 75. In words: Minimum Inhibitory Concentration, Enterobacter aerogeneus No. 75. The note with it: Enterobacter aerogeneus No. 75; for MIC: read-out: Minimum Inhibitory Concentration. As for the experimental part:
as §1

[6] abbreviates: FS289, Staphylococcus aureus FS 289, strain resistant to penicillin, read-out: Minimum Inhibitory Concentration.

On to `NC(=O)Nc1ccc([C@@H](NC(=O)c2cnc3cccnc3c2O)C(=O)N[C@@H]2C(=O)N3C(C(=O)O)=C(CSc4cnn[nH]4)CS[C@H]23)cc1` [Example 23], for which the MIC is 1.56 µg/mL (≈ 2.31 µM) in assay [1]; 6.25 µg/mL (≈ 9.24 µM) in assay [2] (setting [6]); 3.13 µg/mL (≈ 4.63 µM) in the assay with Escherichia coli NIHJ; 1.56 µg/mL (≈ 2.31 µM) in assay [3]; 0.2 µg/mL (≈ 0.296 µM) with Proteus vulgaris HX 19; 3.13 µg/mL (≈ 4.63 µM) in assay [4]. Further, the MIC against Serratia No. 72 worked out at 12.5 µg/mL (≈ 18.5 µM); in assay [5] it was 3.13 µg/mL (≈ 4.63 µM).

Consider `NC(=O)Nc1ccc([C@@H](NC(=O)c2cnc3cccnc3c2O)C(=O)N[C@@H]2C(=O)N3C(C(=O)O)=C(CSc4nnc(S)s4)CS[C@H]23)cc1` [Example 24], for which the MIC worked out at 1.56 µg/mL (≈ 2.15 µM) in assay [1]; 6.25 µg/mL (≈ 8.61 µM) in assay [2] (setting [6]); 3.13 µg/mL (≈ 4.31 µM) with Escherichia coli NIHJ; 1.56 µg/mL (≈ 2.15 µM) in assay [3]; 0.39 µg/mL (≈ 0.537 µM) in the assay with Proteus vulgaris HX 19; 3.13 µg/mL (≈ 4.31 µM) in assay [4]. The figures for the MIC (with Serratia No. 72; in assay [5]) were 12.5 µg/mL (≈ 17.2 µM) and 3.13 µg/mL (≈ 4.31 µM), respectively.

Take `Cc1ccc2c(O)c(C(=O)N[C@@H](C(=O)N[C@@H]3C(=O)N4C(C(=O)O)=C(CSc5nnc(C)s5)CS[C@H]34)c3ccc(NC(N)=O)cc3)cnc2n1` [Example 25]: the MIC in assay [1] turned out to be 1.56 µg/mL (≈ 2.16 µM); in assay [2] (setting [6]), 6.25 µg/mL (≈ 8.66 µM); with Escherichia coli NIHJ, 3.13 µg/mL (≈ 4.34 µM); in assay [3], 3.13 µg/mL (≈ 4.34 µM); in the assay on Proteus vulgaris HX 19, 0.39 µg/mL (≈ 0.54 µM); in assay [4] it was 3.13 µg/mL (≈ 4.34 µM). Moreover, the values for the MIC (against Serratia No. 72; in assay [5]) were 12.5 µg/mL (≈ 17.3 µM) and 6.25 µg/mL (≈ 8.66 µM), respectively.

Regarding `Cc1ccc2c(O)c(C(=O)N[C@@H](C(=O)N[C@@H]3C(=O)N4C(C(=O)O)=C(CSc5nnnn5C)CS[C@H]34)c3ccc(NC(N)=O)cc3)cnc2n1` [Example 26], the MIC in assay [1] was determined as 1.56 µg/mL (≈ 2.21 µM); in assay [2] (setting [6]), 6.25 µg/mL (≈ 8.86 µM); with Escherichia coli NIHJ it was 3.13 µg/mL (≈ 4.44 µM); in assay [3], 3.13 µg/mL (≈ 4.44 µM); with Proteus vulgaris HX 19 it was 0.2 µg/mL (≈ 0.283 µM); in assay [4], 3.13 µg/mL (≈ 4.44 µM). The MIC against Serratia No. 72 was 12.5 µg/mL (≈ 17.7 µM); in assay [5], 6.25 µg/mL (≈ 8.86 µM).

Regarding `CN(C)c1ccc2ncc(C(=O)N[C@@H](C(=O)N[C@@H]3C(=O)N4C(C(=O)O)=C(CSc5cnn[nH]5)CS[C@H]34)c3ccc(NC(N)=O)cc3)c(O)c2n1` [Example 27], the MIC turned out to be 1.56 µg/mL (≈ 2.17 µM) in assay [1]; 6.25 µg/mL (≈ 8.68 µM) in assay [2] (Staphylococcus aureus, FS289, read-out: Minimum Inhibitory Concentration); 3.13 µg/mL (≈ 4.35 µM) in the assay with Escherichia coli NIHJ; 1.56 µg/mL (≈ 2.17 µM) in assay [3]; 0.2 µg/mL (≈ 0.278 µM) in the assay with Proteus vulgaris HX 19; 3.13 µg/mL (≈ 4.35 µM) in assay [4]. The MIC was determined as 12.5 µg/mL (≈ 17.4 µM) in the assay on Serratia No. 72 and 3.13 µg/mL (≈ 4.35 µM) in assay [5].

Turning to `Cc1nnc(SCC2=C(C(=O)O)N3C(=O)[C@@H](NC(=O)[C@H](NC(=O)c4cnc5ccc(N(C)C)nc5c4O)c4ccc(NC(N)=O)cc4)[C@H]3SC2)s1` [Example 28], the MIC turned out to be 1.56 µg/mL (≈ 2.08 µM) in assay [1]; 6.25 µg/mL (≈ 8.32 µM) in assay [2] (setting [6]); 1.56 µg/mL (≈ 2.08 µM) with Escherichia coli NIHJ; 1.56 µg/mL (≈ 2.08 µM) in assay [3]; 0.1 µg/mL (≈ 0.133 µM) in the assay on Proteus vulgaris HX 19; 3.13 µg/mL (≈ 4.17 µM) in assay [4]. Also, the values for the MIC (with Serratia No. 72; in assay [5]) were 12.5 µg/mL (≈ 16.6 µM) and 3.13 µg/mL (≈ 4.17 µM), respectively.

Take `CN(C)c1ccc2ncc(C(=O)NC(C(=O)NC3C(=O)N4C(C(=O)[O-])=C(CSc5nnnn5C)CSC34)c3ccc(NC(N)=O)cc3)c(O)c2n1.[Na+]` (centres unmarked) [Example 29]: the “Minimum Inhibitory Concentration” value worked out at 0.78 µg/mL in assay [1]; 6.25 µg/mL in assay [2] (Staphylococcus aureus FS 289, strain resistant to penicillin); 1.56 µg/mL in the assay on Escherichia coli NIHJ; 1.56 µg/mL in assay [3] (Klebsiella pneumoniae 602); 0.2 µg/mL in the assay with Proteus vulgaris HX 19; 3.13 µg/mL in assay [4]. The “Minimum Inhibitory Concentration” value in the assay on Serratia No. 72 came to 12.5 µg/mL; in assay [5], 3.13 µg/mL.

In the case of `COc1cnc2c(O)c(C(=O)N[C@@H](C(=O)N[C@@H]3C(=O)N4C(C(=O)O)=C(COC(C)=O)CS[C@H]34)c3cccc(NC(N)=O)c3)cnc2n1` [Example 31], the MIC in assay [1] is 0.78 µg/mL (≈ 1.17 µM); in assay [2] (setting [6]) it was 6.25 µg/mL (≈ 9.38 µM); in the assay on Escherichia coli NIHJ, 3.13 µg/mL (≈ 4.7 µM); in assay [3], 3.13 µg/mL (≈ 4.7 µM); in the assay on Proteus vulgaris HX 19 it was 0.39 µg/mL (≈ 0.585 µM); in assay [4], 6.25 µg/mL (≈ 9.38 µM). Further, the MIC against Serratia No. 72 came to 50 µg/mL (≈ 75 µM); in assay [5], 25 µg/mL (≈ 37.5 µM).

With `CC(=O)OCC1=C(C(=O)O)N2C(=O)[C@@H](NC(=O)[C@H](NC(=O)c3cnc4cncnc4c3O)c3cccc(NC(N)=O)c3)[C@H]2SC1` [Example 32], the MIC in assay [1] was 0.78 µg/mL (≈ 1.23 µM); in assay [2] (setting [6]), 6.25 µg/mL (≈ 9.82 µM); with Escherichia coli NIHJ, 3.13 µg/mL (≈ 4.92 µM); in assay [3] it was 3.13 µg/mL (≈ 4.92 µM); in the assay with Proteus vulgaris HX 19, 0.39 µg/mL (≈ 0.613 µM); in assay [4] it was 6.25 µg/mL (≈ 9.82 µM). Also, the MIC in the assay on Serratia No. 72 stood at 50 µg/mL (≈ 78.5 µM); in assay [5], 12.5 µg/mL (≈ 19.6 µM).

Consider `COc1ccc2ncc(C(=O)N[C@@H](C(=O)N[C@@H]3C(=O)N4C(C(=O)O)=C(COC(C)=O)CS[C@H]34)c3cccc(NC(N)=O)c3)c(O)c2n1` [Example 33], for which the MIC in assay [1] came to 0.78 µg/mL (≈ 1.17 µM); in assay [2] (setting [6]), 6.78 µg/mL (≈ 10.2 µM); in the assay on Escherichia coli NIHJ, 3.13 µg/mL (≈ 4.7 µM); in assay [3], 3.13 µg/mL (≈ 4.7 µM); in the assay on Proteus vulgaris HX 19, 0.78 µg/mL (≈ 1.17 µM); in assay [4], 6.25 µg/mL (≈ 9.39 µM). Besides, the MIC with Serratia No. 72 was 50 µg/mL (≈ 75.1 µM); in assay [5], 12.5 µg/mL (≈ 18.8 µM).
